Data as given in patent publication US4409210A, “Antibiotic compound” (priority 1982, dated 1983).
*1 amine or outer side, *2 acyl side, *3 side chain or, on linkers, in order; H or OH if unused. Where a SMILES comes first, the peptide text is derived from it. Bridges are numbered along the chain shown (N, C = ends). [ ]: non-standard residue; d: D form. ξ: configuration not given here. X2 = CCCCCCCCCCCC(CC(=O)[*:1])O[*:2]; ξAsp(3ξ-OH) = NC(C(=O)O)C(O)C(=O)O; X1 = O=C(C1C(O)CCN1[*:1])[*:2]

System: Clindamycin-erythromycin-resistant strains of C. difficile and C. perfringens
Format: cell-based

CCCCCCCCCCCC1CC(=O)N2CCCC2C(=O)NC(CO)C(=O)N2CCCC2C(=O)NC(CCCNC(=N)N)C(=O)NC(C(O)C(=O)O)C(=O)NC(CO)C(=O)N2CCC(O)C2C(=O)NC(C(O)C(=O)O)C(=O)O1 (stereo not shown) [Bu-2517] (PSPR[ξAsp(3ξ-OH)]S[X1][ξAsp(3ξ-OH)]; linker N-C via X2; configuration not given here)
concentration to which strains were susceptible: 1.6 to 3.1 µg/mL
